Our source for the IC50 values is PubChem BioAssay AID540269 (Sanford-Burnham Center for Chemical Genomics, 2011).

Calls of active or inactive are those of the source. No rule for the calls is given here.

For orientation: IC50 means the point on the concentration scale where inhibition reaches its midpoint.

The target in this experiment is glucose-6-phosphate dehydrogenase-6-phosphogluconolactonase (Plasmodium falciparum 3D7). The experiment is described as follows: inhibition of P. falciparum G6PD activity – biochemical, kinetic NADPH detection, orthogonal assay, dose response (AID 540269). The following applies: purified PfG6PD-6PGL.
In the case of `Oc1ccc(-c2cn3c(n2)SCC3)cc1O`, the IC50 was 46.5 µM.
The same measure for `O=c1c2cc(C(F)(F)F)ccc2sn1-c1ccccc1`: 20.3 µM; for `CCC1(CC)Cc2ccccc2C(N)=C1C#N`: > 80 µM (inactive); for `Cc1ccc(NNS(=O)(=O)c2ccc(C)cc2)cc1`: 36.8 µM.
Take `Cc1ccsc1/C=N/NC(=O)c1cccc(S(=O)(=O)Nc2ccccc2Cl)c1`: the IC50 was > 80 µM (inactive).
The same measure for `Cc1ccc(-c2csc(NC(=O)c3ccc(Br)cc3)c2C(=O)O)cc1`: 29.7 µM; for `Cc1ccsc1/C=N\NC(=O)CC(=O)NCc1ccccc1`: > 80 µM (inactive); for `Clc1cccc(Cl)c1CNc1ccc(N2CCCC2)cc1`: 60 µM.
The same measure for `COC(=O)[C@H](C)NC(=O)c1cc2c(cn1)[nH]c1ccccc12`: 51 µM; for `Cn1c(-c2sccc2OCc2cccc(C(F)(F)F)c2)n[nH]c1=S`: 7.3 µM.
The same measure for `CN=c1scc(C)n1/N=C/c1ccc(O)c(O)c1O`: 24.8 µM; for `COc1ccc(NC2CCCN(Cc3cccc4cnccc34)C2)cc1OC` (centres undefined): > 80 µM (inactive); for `CC(C)c1cc2c(c(O)c1O)[C@@]13CCCC(C)(C)C1CC2OC3=O` (some centres undefined): 58.4 µM.
Turning to `COc1cccc(/C=N/NC(=O)c2c(C)nc3ccc(Br)cn23)c1`, the 50% inhibitory concentration (IC50) is 52.3 µM.
To `CCOc1ccc(CNc2ccc(N3CCCC3)cc2)cc1` belongs > 80 µM (inactive); to `O=S(=O)(Nc1ccc(Cl)cc1)c1ccc(N2CCOCC2)c(NC(=S)NCCN2CCOCC2)c1`, > 80 µM (inactive); to `CCCn1cc(S(=O)(=O)CC(=O)Nc2ccc(OC)cc2OC)c2ccccc21`, > 80 µM (inactive).
To `CCn1c(SCc2nc3scc(-c4ccccc4)c3c(=O)[nH]2)nnc1-c1cccs1` belongs 58 µM.
The same measure for `NS(=O)(=O)c1ccc(-c2ccc(C=C3C(=O)NC(=O)NC3=O)o2)cc1`: 40.2 µM; for `Cc1cc(O)c(C(C)C)cc1N=Cc1ccc(N(C)C)cc1`: > 80 µM (inactive).
`O=C(CCC(=O)OCC(=O)c1ccc([N+](=O)[O-])cc1)Nc1ccccc1Cl`: the IC50 was > 80 µM (inactive).
To `O=C1C=CC(=O)N1c1ccc(-c2nc3ccccc3o2)cc1` belongs > 80 µM (inactive).
The same measure for `Cc1ccc(/C=C/C(=O)Nc2ccc([N+](=O)[O-])c(NC(=O)/C=C/c3ccc(C)o3)c2)o1`: > 80 µM (inactive); for `Cc1ccccc1-n1sc2cc(F)ccc2c1=O`: 10.2 µM.
To `Cc1cccc(C(=O)Nc2nnc(S(=O)(=O)N3CCCCCC3)s2)c1` belongs 16.9 µM.
For the compound `Cc1cc(C)c(S(=O)(=O)/N=C2/C=C(SCC(=O)O)C(=O)c3ccccc32)cc1C`, the IC50 was > 80 µM (inactive).
Regarding `O=c1c2ccccc2sn1-c1ccc(Cl)cc1Cl`, the concentration for half-maximal inhibition (IC50) is 12.9 µM.
The same measure for `Cn1c2ccccc2c2ccc3c(c21)C(=O)C=CC3=O`: 1.8 µM; for `Cc1c(C(=O)N(Cc2ccccc2Cl)C2CCS(=O)(=O)C2)oc2ccccc12` (centres undefined): > 80 µM (inactive); for `CN1CCN(C(=S)c2ccc([N+](=O)[O-])cc2)CC1`: > 80 µM (inactive).
Consider `Cc1cc(C)c2sc(NC(=O)C3=COCCO3)nc2c1`, for which the IC50 was 30.2 µM.
In the case of `COc1ccccc1N1C(=O)C=C(Sc2nc(C)cc(C)n2)C1=O`, the IC50 was > 80 µM (inactive).
The same measure for `COc1ccc2nc3cc(Cl)ccc3c(Nc3ccc(O)c(CN4CCN(C)CC4)c3)c2c1`: > 80 µM (inactive); for `CCCCCCCCn1sccc1=O`: 66.4 µM; for `Cc1ccc(-c2csc(NC(=O)c3ccccc3F)c2C(=O)O)cc1`: 53.7 µM.
To `C[C@]12CC[C@@H]3c4ccc(O)c(O)c4CC[C@H]3[C@@H]1CC[C@@H]2O` belongs 41.3 µM.
To `N#C/C(C(=O)Nc1ccc(Cl)cc1)=C(/S)Nc1ccccc1` belongs 41.5 µM; to `CC(NC1=CC(=O)c2cccnc2C1=O)C(O)c1ccccc1` (centres undefined), 45.1 µM; to `Cc1ccc(SC2=C(Sc3ccc(C)cc3)C(=O)c3ccccc3C2=O)cc1`, 34.7 µM.
Turning to `COc1ccc(NS(=O)(=O)c2ccc(N3CCCC3)c(NC(=S)Nc3cccc(C)c3C)c2)cc1`, the IC50 was > 80 µM (inactive).
Consider `O=C(CCc1ccc(S(=O)(=O)N2CCOCC2)cc1)N/N=C/c1ccc(O)c(O)c1O`, for which the 50% inhibitory concentration (IC50) is 36.5 µM.
To `Cc1ccccc1OCC(=O)NCC(=O)OCC(=O)c1ccc([N+](=O)[O-])cc1` belongs 67.4 µM.
In the case of `Cc1cc(C)c2c(=O)n(CC(=O)Nc3ccc(Cl)cc3)sc2n1`, the IC50 was > 80 µM (inactive).
`CC(=O)Nc1ccc2c(=O)n(-c3ccccc3)sc2c1`: the IC50 was 15.6 µM.
As to `CC(C)Nc1ccc(Nc2ccccc2)cc1`, the IC50 is > 80 µM (inactive).
The same measure for `O=C1NC(=O)C(=Cc2ccc(-c3ccccc3[N+](=O)[O-])o2)C(=O)N1`: 69.9 µM.
`O=C(O)c1ccc(-n2c(-c3cc(-c4ccco4)[nH]n3)n[nH]c2=S)cc1`: the IC50 is 40.8 µM.
The same measure for `Cc1ccc(CNc2ccc(O)cc2)cc1`: 45.1 µM; for `CCC(c1ccc(O)c(O)c1)C(CC)c1ccc(O)c(O)c1` (centres undefined): > 80 µM (inactive); for `CCN(CC)c1nc(N)nc(NS(=O)(=O)c2ccc(Cl)cc2)n1`: > 80 µM (inactive).
Consider `O=C1NC(=O)N(c2ccccc2)C(=O)/C1=C/c1ccc([N+](=O)[O-])s1`, for which the IC50 was > 80 µM (inactive).
The same measure for `CCN1CCCC1CNC(=O)c1ccc2c(c1)NC(=O)/C(=C\c1ccc(C)cc1)S2` (centres undefined): 6.79 µM; for `CN(C)S(=O)(=O)c1cccc(-n2sc3ccccc3c2=O)c1`: 12.8 µM; for `NC(=O)N/N=C/c1ccc(-n2nncc2-c2ccc(Cl)cc2)cc1`: > 80 µM (inactive).
Take `O=C(Nc1nnc(S(=O)(=O)N2CCCCCC2)s1)c1cccc(Br)c1`: the IC50 was 14.1 µM.
Consider `CC(=NNC(=S)N1CCN(c2ccccn2)CC1)c1nccs1`, for which the IC50 is > 80 µM (inactive).
The same measure for `COc1cc(CN2CCCC(C(=O)c3ccc4c5c(cccc35)CC4)C2)cc(OC)c1O` (centres undefined): 28.4 µM; for `COc1ccc(CNC(=O)Cc2cn(C)c3ccccc23)c(OC)c1`: > 80 µM (inactive); for `O=C(CCSCCC(=O)NN=Cc1ccccc1)NN=Cc1ccccc1`: > 80 µM (inactive).
For the compound `COc1ccc(CCn2c(NN=C3CCCC3)nc3c2c(=O)[nH]c(=O)n3C)cc1`, the IC50 was > 80 µM (inactive).
Turning to `O=c1ccsn1Cc1ccccc1`, the half-maximal inhibitory concentration (IC50) was 57.9 µM.
To `CCn1c2ccccc2c2nc3cc(S(=O)(=O)N4CCOCC4)ccc3nc21` belongs > 80 µM (inactive); to `Cc1ccc(NC(=O)c2ccc(Cl)c(N3C(=O)C=CC3=O)c2)cc1`, 28.2 µM; to `COc1cc(N)c2ncccc2c1OC`, > 80 µM (inactive).
As to `COc1ccc(N=C2C(=S)N(c3ccc(OC)cc3)C(=NS(=O)(=O)c3ccccc3)N2c2ccccc2)cc1`, the IC50 was > 80 µM (inactive).
To `O=C1/C(=C\c2ccc([N+](=O)[O-])cc2)CS(=O)(=O)C/C1=C/c1ccc([N+](=O)[O-])cc1` belongs > 80 µM (inactive); to `Cc1nnc(N/N=C/c2ccc(-c3ccccc3F)o2)n1N`, 32.1 µM.
The same measure for `CCN(CC)CCn1c2ccccc2c(=O)c2c(O)ccc(O)c21`: 33.1 µM; for `CCOc1ccccc1NC(=O)CCCc1nc2ccccc2c(=O)[nH]1`: > 80 µM (inactive).
The same measure for `CC1CCc2c(nc3sc4c(c3c2N)CCCC4)C1` (centres undefined): > 80 µM (inactive).
As for `Cc1ccccc1-n1c(-c2ccc3ccccc3n2)n[nH]c1=S`, the IC50 was 51.3 µM.
To `CC(=O)c1cccc(NC(=O)c2cnn(-c3ccccc3)c2C)c1` belongs 58.4 µM; to `c1cc(CNc2ccc3c(c2)OCO3)ccn1`, > 80 µM (inactive).
The same measure for `COc1cc(NCCCn2ccc(NC(=O)OCc3ccccc3)nc2=O)cc(OC)c1OC`: > 80 µM (inactive).
To `c1ccc(-c2nc(N3CCOCC3)s[n+]2-c2ccccc2)cc1` belongs > 80 µM (inactive); to `CCn1c(N)c(C(=O)NC)sc1=S`, 26.3 µM.
Take `Cc1cccc(NC2=C(NC(=O)c3ccccc3)C(=O)c3ccccc3C2=O)c1`: the IC50 was > 80 µM (inactive).
Turning to `O=C(Nc1ccc(N2CCCC2)cc1)c1cccc(-c2cc3ccccc3oc2=O)c1`, the IC50 is > 80 µM (inactive).
The same measure for `CCOc1ccc2ccccc2c1/C=N/NC(=O)c1ccncc1`: > 80 µM (inactive); for `C=CCOc1c(Cl)cc(CNc2ccc(N(C)C)cc2)cc1OC`: 61.5 µM; for `Cc1cc(C)c2c(=O)n(CC(=O)Nc3cccc(F)c3)sc2n1`: 41.6 µM.
To `O=C(Cn1sc2ccccc2c1=O)Nc1ccc(F)cc1` belongs 13.8 µM; to `CC1=CC(=NOC(=O)/C=C/c2ccccc2)C=C(C)C1=O`, > 80 µM (inactive); to `CCOc1cc(NCc2ccccc2)c2ncn(C(C)C)c2c1`, > 80 µM (inactive).
As to `Cc1ccc(S(=O)(=O)N(C(=O)c2ccncc2)c2ccc(OC(=O)c3ccncc3)c3ccccc23)cc1`, the IC50 was 55.7 µM.
Consider `O=C(CSc1nc2cc(Cl)ccc2s1)c1ccco1`, for which the IC50 is > 80 µM (inactive).
Consider `O=C(CN1CCN(c2ccc(O)cc2)CC1)Nc1cc(S(=O)(=O)N2CCOCC2)ccc1Cl`, for which the IC50 was > 80 µM (inactive).
To `COc1c(O)ccc2c1CN1CCc3cc4c(cc3C1C2)OCO4` (centres undefined) belongs > 80 µM (inactive).
The same measure for `CCOC(=O)c1c(C)n(-c2ccc(C)cc2)c2c(C(C(C)=O)C(=O)O)c(Br)c(O)c(O)c12` (centres undefined): 57.4 µM; for `COc1ccc(Nc2cc(C)c3c(O)cccc3n2)cc1`: > 80 µM (inactive); for `COc1ccc(C(=O)/C=C2\Sc3ccccc3N2C)cc1`: 43.4 µM.
To `COc1cc(CNc2ccc(N3CCCC3)cc2)cc(Cl)c1OC` belongs > 80 µM (inactive).
As for `Cc1ccc(C(=O)NCC(=O)NCC(=O)OCC(=O)c2ccc([N+](=O)[O-])cc2)cc1`, the IC50 was > 80 µM (inactive).
The same measure for `COC1=CC(=O)C=C(OC)C1(O)CC(C)=O`: > 80 µM (inactive).
